One assay addresses human orexin receptor 2 (Homo sapiens (Human), UniProt O43614). Description: Orexin antagonist activity, intracellular calcium FLIPR assay (orexin receptor 2). Particulars: RBL-2H3 cells stably expressing human orexin receptor 2; Ca2+ dye FLIPR; compound 15 minutes before orexin-A at approximately 80% maximal response; read-out: Human Orexin2R IC50. It counts as cell-based. The procedure:
(§1) Orexin antagonist activity was determined by measuring changes in intracellular calcium levels using a Ca^2+ sensitive fluorescent dye. The changes in fluorescent signal were monitored by Fluorescent Imaging Plate Reader (FLIPR™) technology available from Molecular Devices, LLC, U.S.A. Orexin mediated increases in intracellular Ca^2+ concentration were readily detected upon activation with orexin-A. Twenty-four hours prior to the assay, RBL-2H3 cells stably expressing either human orexin receptor 1 or human orexin receptor 2 were seeded in cell culture medium in black, clear-bottom 384-well plates (commercially available from Corning Inc., U.S.A.) and grown overnight at 37° C., 5% CO2. On the day of the assay, cell culture media was removed and cells were loaded with Calcium 5 Dye (commercially sold by Molecular Devices, LLC, U.S.A.) for 1 hour at 37° C., 5% CO2. Test compounds (at 10 point half log concentration response curves from 10 μM) were added to cells for 15 minutes prior to the addition of orexin-A to all wells, to achieve a final concentration that produces approximately an 80% maximal response. The IC50 values were determined from ten point concentration response curves. Curves were generated using the average of two wells for each data point.
In general terms: Calcium assays in cells follow changes in intracellular calcium, usually with a dye or a luminescent sensor.

For another assay, the target named is human orexin receptor 1 (Homo sapiens (Human), UniProt O43613). Description: Orexin antagonist activity, intracellular calcium FLIPR assay (orexin receptor 1). It counts as cell-based. Particulars: RBL-2H3 cells stably expressing human orexin receptor 1; Ca2+ dye FLIPR; compound 15 minutes before orexin-A at approximately 80% maximal response; read-out: Human Orexin1R IC50. The procedure:
as §1

For 29 compounds, IC50 results are on record in patent US9493432B2, “Cyclopentylbenzamide derivatives and their use for the treatment of psychotic and cognitive disorders” (Takeda Pharmaceutical Company Limited, priority 2013, dated 2016).

Some results are limits rather than exact numbers.

human orexin receptor 2, sequence (O43614 whole entry): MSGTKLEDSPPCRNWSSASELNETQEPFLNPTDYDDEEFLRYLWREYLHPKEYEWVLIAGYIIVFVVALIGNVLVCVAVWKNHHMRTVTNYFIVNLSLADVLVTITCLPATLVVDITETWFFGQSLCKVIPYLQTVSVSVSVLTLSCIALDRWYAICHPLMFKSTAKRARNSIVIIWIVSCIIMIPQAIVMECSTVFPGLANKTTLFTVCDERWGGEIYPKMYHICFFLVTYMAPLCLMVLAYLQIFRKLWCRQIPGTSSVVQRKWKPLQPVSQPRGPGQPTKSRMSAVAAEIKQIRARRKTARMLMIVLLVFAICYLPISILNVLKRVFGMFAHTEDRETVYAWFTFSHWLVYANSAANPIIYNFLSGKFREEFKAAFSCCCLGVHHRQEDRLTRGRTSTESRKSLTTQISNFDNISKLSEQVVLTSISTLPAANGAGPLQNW
human orexin receptor 1, sequence (O43613 whole entry): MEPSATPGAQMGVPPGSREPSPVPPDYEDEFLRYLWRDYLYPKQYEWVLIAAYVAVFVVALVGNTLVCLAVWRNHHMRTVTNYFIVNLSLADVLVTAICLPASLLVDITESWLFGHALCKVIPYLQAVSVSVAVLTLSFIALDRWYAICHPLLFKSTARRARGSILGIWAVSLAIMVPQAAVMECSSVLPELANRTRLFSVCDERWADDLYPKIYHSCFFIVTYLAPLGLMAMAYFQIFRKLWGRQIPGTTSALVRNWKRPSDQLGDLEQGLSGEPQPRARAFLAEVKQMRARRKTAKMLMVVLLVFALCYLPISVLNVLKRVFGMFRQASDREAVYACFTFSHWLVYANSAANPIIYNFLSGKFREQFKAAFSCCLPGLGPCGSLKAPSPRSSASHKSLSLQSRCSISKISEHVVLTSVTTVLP

One may read the IC50 as the point on the concentration scale where inhibition reaches its midpoint. With `O=C(N[C@H]1CCC[C@@H]1Nc1nc2ccc(Cl)cc2s1)c1ccccc1-n1nccn1` [Example 91, N-[(1S,2S)-2-[(6-Chloro-1,3-benzothiazol-2-yl)amino]cyclopentyl]-2-(2H-1,2,3-triazol-2-yl)benzamide], on human orexin receptor 2, the IC50 is 4700 nM.

As to `O=C(NC1CC(F)(F)CC1Nc1nc2ccc(Cl)cc2s1)c1ccccc1-n1nccn1` (single isomer, unassigned) [Example 106, N-{2-[(6-Chloro-1,3-benzothiazol-2-yl)amino]-4,4-difluorocyclopentyl}-2-(2H-1,2,3-triazol-2-yl)benzamide], on human orexin receptor 2, the concentration for half-maximal inhibition (IC50) is 441 nM.

Take `CCOc1ccc(C)cc1C(=O)NC1CCCC1Cc1ccc2ccccc2n1` (stereo not shown) [Example 31, 2-Ethoxy-5-methyl-N-(2-(quinolin-2-ylmethyl)cyclopentyl)-benzamide]: the 50% inhibitory concentration (IC50) turned out to be 92 nM at human orexin receptor 1 and 3300 nM at human orexin receptor 2.

As to `CCOc1ccc(C)cc1C(=O)NC1CCCC1Cc1ccc2ccccc2n1` (stereo not shown) [Example 28, 2-Ethoxy-5-methyl-N-[2-(quinolin-2-ylmethyl)cyclopentyl]-benzamide], the half-maximal inhibitory concentration (IC50) worked out at 140 nM at human orexin receptor 1 and 1900 nM on human orexin receptor 2.

As to `CN(C(=O)c1c(F)cccc1F)[C@H]1CCC[C@@H]1Nc1nc2ccc(F)cc2s1` [Example 76, 2,6-Difluoro-N-[(1S,2S)-2-[(6-fluoro-1,3-benzothiazol-2-yl)amino]cyclopentyl]-N-methylbenzamide], the half-inhibitory concentration (IC50) on human orexin receptor 1 was 23 nM; on human orexin receptor 2 it was 2500 nM.

Consider `CCOC(=O)N1CC(NC(=O)c2c(OC)cccc2OC)C(Nc2nc3ccc(Cl)cc3s2)C1` (stereo not drawn) [Example 23, Ethyl cis-3-[(6-Chloro-1,3-benzothiazol-2-yl)amino]-4-[(2,6-dimethoxy-benzene)amido]pyrrolidine-1-carboxylate], for which the half-inhibitory concentration (IC50) on human orexin receptor 1 came to 65 nM; at human orexin receptor 2 it was 620 nM.

In the case of `Cc1ccc(-n2nccn2)c(C(=O)NC2CCCC2Cc2ccc3ccccc3n2)c1` (single isomer, unassigned) [Example 61, 5-Methyl-N-[2-(quinolin-2-ylmethyl)cyclopentyl]-2-(2H-1,2,3-triazol-2-yl)benzamide], the IC50 on human orexin receptor 1 was 35 nM; at human orexin receptor 2, greater than 10000 nM.

Turning to `COc1ccccc1C(=O)N(C)[C@H]1CCC[C@@H]1Nc1nc2ccc(F)cc2s1` [Example 77, N-[(1S,2S)-2-[(6-Fluoro-1,3-benzothiazol-2-yl)amino]cyclopentyl]-2-methoxy-N-methylbenzamide], the values for the IC50 on human orexin receptor 1 and at human orexin receptor 2 were 25 nM and 1600 nM, respectively.

Turning to `Cc1ccc(-n2nccn2)c(C(=O)N[C@@H]2COC[C@@H]2Cc2nc3ccccc3s2)c1` (relative stereo) [Example 102, cis-N-[4-(1,3-Benzothiazol-2-ylmethyl)oxolan-3-yl]-5-methyl-2-(2H-1,2,3-triazol-2-yl)benzamide], the IC50 on human orexin receptor 1 was 79 nM; on human orexin receptor 2, greater than 10000 nM.

`O=C(N[C@H]1CCC[C@@H]1Nc1nc2ccc(F)cc2s1)c1cc(F)ccc1-n1nccn1` [Example 36, 5-Fluoro-N-[(1S,2S)-2-[(6-fluoro-1,3-benzothiazol-2-yl)amino]cyclopentyl]-2-(2H-1,2,3-triazol-2-yl)benzamide]: the half-maximal inhibitory concentration (IC50) at human orexin receptor 1 amounted to 8.3 nM; on human orexin receptor 2, 5400 nM.

In the case of `COc1cccc(OC)c1C(=O)N[C@@H]1CCC[C@@H]1Nc1nc2ccc(Cl)cc2s1` [Example 13, N-[(1R,2S)-2-[(6-Chloro-1,3-benzothiazol-2-yl)amino]cyclopentyl]-2,6-dimethoxybenzamide], the values for the IC50 at human orexin receptor 1 and on human orexin receptor 2 were 580 nM and 5300 nM, respectively.

As to `CN(C(=O)c1ccccc1-n1cccn1)[C@H]1CCC[C@@H]1Nc1nc2ccc(F)cc2s1` [Example 79, N-[(1S,2S)-2-[(6-Fluoro-1,3-benzothiazol-2-yl)amino]cyclopentyl]-N-methyl-2-(1H-pyrazol-1-yl)benzamide], the IC50 was 1 nM on human orexin receptor 1 and 1100 nM on human orexin receptor 2.

In the case of `O=C(N[C@H]1CCC[C@@H]1Nc1nc2ccc(F)cc2s1)c1c(F)cccc1Cl` [Example 70, 2-Chloro-6-fluoro-N-[(1S,2S)-2-[(6-fluoro-1,3-benzothiazol-2-yl)amino]cyclopentyl]benzamide], the values for the half-inhibitory concentration (IC50) on human orexin receptor 1 and on human orexin receptor 2 were 38 nM and greater than 10000 nM, respectively.

On to `Cc1noc(-c2ccccc2C(=O)NC2CCC[C@@H]2Nc2nc3ccc(F)cc3o2)n1` (stereo in doubt) [Example 99, N-[(1S,2S)-2-[(6-Fluoro-1,3-benzoxazol-2-yl)amino]cyclopentyl]-2-(3-methyl-1,2,4-oxadiazol-5-yl)benzamide], for which the figures for the IC50 on human orexin receptor 1 and on human orexin receptor 2 were 12 nM and greater than 10000 nM, respectively.

Turning to `Cc1ccc(-n2nccn2)c(C(=O)N[C@H]2CCC[C@@H]2Nc2nc3ccc(F)cc3s2)c1` [Example 16, N-[(1S,2S)-2-[(6-Fluoro-1,3-benzothiazol-2-yl)amino]cyclopentyl]-5-methyl-2-(2H-1,2,3-triazol-2-yl)benzamide], the IC50 on human orexin receptor 1 was found to be 13 nM; at human orexin receptor 2 it was 2000 nM.

In the case of `Cc1ccc(-n2nccn2)c(C(=O)NC2CCCC2Cc2ccc3ccccc3n2)c1` (single isomer, unassigned) [Example 62, 5-Methyl-N-[2-(quinolin-2-ylmethyl)cyclopentyl]-2-(2H-1,2,3-triazol-2-yl)benzamide], the IC50 at human orexin receptor 1 and at human orexin receptor 2 was greater than 10000 nM each time.

For `COc1cccc(OC)c1C(=O)N[C@H]1CCC[C@@H]1Nc1nc2ccc(F)cc2o1` [Example 66, N-[(1S,2S)-2-[(6-Fluoro-1,3-benzoxazol-2-yl)amino]cyclopentyl]-2,6-dimethoxybenzamide], the results for the IC50 on human orexin receptor 1 and on human orexin receptor 2 were 50 nM and greater than 10000 nM, respectively.

As for `COc1cccc(OC)c1C(=O)N[C@H]1CCC[C@@H]1Nc1nc2cc(Cl)ccc2s1` [Example 6, N-[(1S,2S)-2-[(5-Chloro-1,3-benzothiazol-2-yl)amino]cyclopentyl]-2,6-dimethoxybenzamide], the results for the IC50 on human orexin receptor 1 and at human orexin receptor 2 were 35 nM and greater than 10000 nM, respectively.

Take `O=C(N[C@H]1CCC[C@@H]1Nc1nc2ccc(F)cc2s1)c1c(F)cccc1F` [Example 47, 2,6-Difluoro-N-[(1S,2S)-2-[(6-fluoro-1,3-benzothiazol-2-yl)amino]-cyclopentyl]benzamide]: the half-maximal inhibitory concentration (IC50) on human orexin receptor 1 is 150 nM; on human orexin receptor 2, greater than 10000 nM.

In the case of `Cc1ccc(-n2nccn2)c(C(=O)NC2CCCC2Cc2nc3ccc(Cl)cc3s2)c1` (stereo not shown) [Example 33, N-{2-[(6-Chloro-1,3-benzothiazol-2-yl)methyl]cyclopentyl}-5-methyl-2-(2H-1,2,3-triazol-2-yl)benzamide], at human orexin receptor 1, the IC50 worked out at 51 nM.

In the case of `O=C(N[C@H]1CCC[C@@H]1Nc1nc2ccc(F)cc2s1)c1cc(F)ccc1-c1ncccn1` [Example 42, 5-Fluoro-N-[(1S,2S)-2-[(6-fluoro-1,3-benzothiazol-2-yl)amino]cyclopentyl]-2-(pyrimidin-2-yl)benzamide], the half-maximal inhibitory concentration (IC50) on human orexin receptor 1 stood at 24 nM.

Take `Cc1cccc(C(=O)N[C@H]2CCC[C@@H]2Nc2nc3ccc(F)cc3s2)c1` [Example 57, N-[(1S,2S)-2-[(6-Fluoro-1,3-benzothiazol-2-yl)amino]cyclopentyl]-3-methylbenzamide]: the half-inhibitory concentration (IC50) on human orexin receptor 1 came out at 780 nM.

For the compound `O=C(N[C@H]1CCC[C@@H]1Nc1nc2ccc(F)cc2s1)c1cc(F)ccc1-n1ccnn1` [Example 45, 5-Fluoro-N-[(1S,2S)-2-[(6-fluoro-1,3-benzothiazol-2-yl)amino]cyclopentyl]-2-(1H-1,2,3-triazol-1-yl)benzamide], the IC50 on human orexin receptor 1 worked out at 80 nM.

Regarding `COc1cccc(C(=O)N[C@H]2CCC[C@@H]2Nc2nc3ccc(F)cc3s2)c1` [Example 56, N-[(1S,2S)-2-[(6-Fluoro-1,3-benzothiazol-2-yl)amino]cyclopentyl]-3-methoxybenzamide], the concentration for half-maximal inhibition (IC50) on human orexin receptor 1 worked out at 540 nM.

As for `O=C(N[C@H]1CCC[C@@H]1Nc1nc2ccc(F)cc2s1)c1ccccc1OC(F)F` [Example 55, 2-(Difluoromethoxy)-N-[(1S,2S)-2-[(6-fluoro-1,3-benzothiazol-2-yl)amino]-cyclopentyl]benzamide], the 50% inhibitory concentration (IC50) at human orexin receptor 1 worked out at 470 nM.

`O=C(NC1CCC[C@@H]1Nc1nc2ccc(F)cc2s1)c1c(Cl)cccc1Cl` (stereo in doubt) [Example 52, 2,6-Dichloro-N-[(1S,2S)-2-[(6-fluoro-1,3-benzothiazol-2-yl)amino]-cyclopentyl]benzamide]: the 50% inhibitory concentration (IC50) on human orexin receptor 1 was determined as 270 nM.

`O=C(NC1CC(F)(F)CC1Nc1nc2ccc(Cl)cc2s1)c1ccccc1-n1nccn1` (single isomer, unassigned) [Example 105, N-{2-[(6-Chloro-1,3-benzothiazol-2-yl)amino]-4,4-difluorocyclopentyl}-2-(2H-1,2,3-triazol-2-yl)benzamide]: the IC50 at human orexin receptor 2 came to 3540 nM.

With “5-Methyl-N-((1S,2S)-2-(quinoxalin-2-ylamino)cyclopentyl)-2-(2H-1,2,3-triazol-2-yl) benzamide [Example 21]”, the half-maximal inhibitory concentration (IC50) at human orexin receptor 2 was 5100 nM.

For the compound `O=C(N[C@H]1CCC[C@@H]1Nc1nc2ccc(F)cc2s1)c1ccccc1C1CC1` [Example 58, 2-Cyclopropyl-N-[(1S,2S)-2-[(6-fluoro-1,3-benzothiazol-2-yl)amino]-cyclopentyl]benzamide], the concentration for half-maximal inhibition (IC50) at human orexin receptor 1 was determined as 870 nM.
